From patent publication EP1189687B1, “FLOWABLE W/O TYPE EMULSIONS WITH A HIGH WATER CONTENT CONTAINING MEDIUM POLAR LIPIDS” (Beiersdorf AG, priority 1999, dated 2000)

Assay: Interfacial tension of medium-polar lipids against water (measure of polarity)
Type: physicochemical
Settings: taken as polarity index of the lipid (the lower the tension, the more polar)
Text: Öle und Fette unterscheiden sich unter anderem in ihrer Polarität, welche schwierig zu definieren ist. Es wurde bereits vorgeschlagen, die Grenzflächenspannung gegenüber Wasser als Maß für den Polaritätsindex eines Öls bzw. einer Ölphase anzunehmen. Dabei gilt, daß die Polarität der betreffenden Ölphase umso größer ist, je niedriger die Grenzflächenspannung zwischen dieser Ölphase und Wasser ist. Erfindungsgemäß wird die Grenzflächenspannung als ein mögliches Maß für die Polarität einer gegebenen Ölkomponente angesehen.
Die Grenzflächenspannung ist diejenige Kraft, die an einer gedachten, in der Grenzfläche zwischen zwei Phasen befindlichen Linie der Länge von einem Meter wirkt. Die physikalische Einheit für diese Grenzflächenspannung errechnet sich klassisch nach der Beziehung Kraft/Länge und wird gewöhnlich in mN/m (Millinewton geteilt durch Meter) wiedergegeben. Sie hat positives Vorzeichen, wenn sie das Bestreben hat, die Grenzfläche zu verkleinern. Im umgekehrten Falle hat sie negatives Vorzeichen.
Die nachfolgende Tabelle 1 führt mittelpolare Lipide auf, die als Einzelsubstanzen oder auch im Gemisch untereinander erfindungsgemäß vorteilhaft sind. Die betreffenden Grenzflächenspannungen gegen Wasser sind in der letzten Spalte angegeben. Es ist jedoch auch vorteilhaft, Gemische aus höher- und niederpolaren und dergleichen zu verwenden, sofern gewährleistet ist, daß die Gesamtpolarität der Ölphase im beanspruchten Bereich liegt. Tabelle 1

| Compound | Grenzflächenspannung gegen Wasser |
| --- | --- |
| CCCCCCCCC(CO)CCCCCC (centres unmarked) [Isofol® 16, Hexyl Decanol] | 24,3 mN/m |
| CCCCCCCCCCCCCCCCCC(=O)OC(C)C [Isopropylstearal, Isopropyl Stearate] | 21,9 mN/m |
| CCCCCCCCCCCCCCCCCCOC(=O)CCCCCC [Tegosoft® SH, Stearyl Heptanoate] | 28,7 mN/m |
| CCCCCCCCOC(=O)CCCCCCCCCCCCCCC(C)C [Prisorine® 2036, Octyl Isostearate] | 29,7 mN/m |
| CCCCCCCCCCCCCC(=O)OCC(CCCCCCCC)CCCCCCCCCC (centres unmarked) [MOD, Octyldodeceyl Myristate] | 22,1 mN/m |
| CCCCCCCCCCC(CO)CCCCCCCC (centres unmarked) [Eutanol® G, Octyldodecanol] | 24,8 mN/m |
| CCCCCCCCCCCCCCCCCC(=O)OCCCCCCCC [Cetiol® 868, Octyl Stearate] | 28,4 mN/m |
| CCCCCCCC(=O)OCC(COC(=O)CCCCCCC)OC(=O)CCCCCCC [Trivent® OCG, Tricaprylin] | 20,2 mN/m |
